Laboratory results reported in publication PMC12311136 (Nature Communications, 2025).

Tests used:
Type in all cases: binding
[1] = target: T1, ALA1 Loop2 (410–914 aa) (Arabidopsis thaliana, UniProt P98204); assay: bio-layer interferometry, POPC background subtracted; conditions: 3% lipid in POPC liposomes; HEPES pH 7.5, 100 mM NaCl
T1 sequence (P98204 410-914): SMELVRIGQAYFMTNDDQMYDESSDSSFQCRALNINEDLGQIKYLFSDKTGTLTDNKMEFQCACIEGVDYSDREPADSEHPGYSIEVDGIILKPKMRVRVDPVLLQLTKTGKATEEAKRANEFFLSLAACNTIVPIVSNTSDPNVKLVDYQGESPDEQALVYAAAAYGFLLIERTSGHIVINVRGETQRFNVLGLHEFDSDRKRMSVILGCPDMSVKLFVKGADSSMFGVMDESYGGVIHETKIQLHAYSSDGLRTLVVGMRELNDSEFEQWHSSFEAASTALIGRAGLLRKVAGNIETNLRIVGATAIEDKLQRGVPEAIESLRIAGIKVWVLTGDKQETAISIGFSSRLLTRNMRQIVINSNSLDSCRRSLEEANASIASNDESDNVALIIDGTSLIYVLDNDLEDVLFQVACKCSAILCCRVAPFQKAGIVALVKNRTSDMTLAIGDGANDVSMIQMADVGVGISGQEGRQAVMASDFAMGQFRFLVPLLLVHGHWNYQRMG

[2] = target: T2, DRP1A (Arabidopsis thaliana, UniProt P42697); assay: as above; conditions: 3% lipid in POPC liposomes; HEPES pH 7.5, 100 mM NaCl
T2 sequence (P42697 1-610): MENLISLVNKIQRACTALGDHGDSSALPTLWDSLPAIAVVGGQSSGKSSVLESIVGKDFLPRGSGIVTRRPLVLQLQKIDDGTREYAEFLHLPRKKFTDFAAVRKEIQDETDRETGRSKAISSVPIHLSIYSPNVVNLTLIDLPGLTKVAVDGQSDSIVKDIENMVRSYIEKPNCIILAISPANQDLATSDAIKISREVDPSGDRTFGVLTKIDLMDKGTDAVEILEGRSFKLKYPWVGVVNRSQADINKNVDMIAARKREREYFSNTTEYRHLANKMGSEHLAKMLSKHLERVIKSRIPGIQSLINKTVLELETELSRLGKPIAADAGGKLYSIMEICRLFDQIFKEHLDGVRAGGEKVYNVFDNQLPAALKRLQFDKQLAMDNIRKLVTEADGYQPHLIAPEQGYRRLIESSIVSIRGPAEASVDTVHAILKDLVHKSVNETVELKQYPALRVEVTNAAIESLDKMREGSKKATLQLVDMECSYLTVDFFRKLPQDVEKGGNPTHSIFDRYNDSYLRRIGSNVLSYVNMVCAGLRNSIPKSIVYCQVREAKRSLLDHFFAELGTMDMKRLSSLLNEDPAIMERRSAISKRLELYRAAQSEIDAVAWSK

[3] = target: T3, ALA1 Loop1 (151–329 aa) (Arabidopsis thaliana, UniProt P98204); assay: bio-layer interferometry, liposome-loaded APS sensor
T3 sequence (P98204 151-329): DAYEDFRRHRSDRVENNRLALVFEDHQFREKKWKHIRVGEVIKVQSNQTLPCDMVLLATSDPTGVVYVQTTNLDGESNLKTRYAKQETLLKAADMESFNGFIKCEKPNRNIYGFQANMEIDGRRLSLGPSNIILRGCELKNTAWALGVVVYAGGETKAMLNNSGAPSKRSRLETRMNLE

[4] = target: T1, ALA1 Loop2 (410–914 aa); assay: as above
[5] = target: T2, DRP1A; assay: as above

Structure (SMILES) | bio-layer interferometry, POPC background subtracted [1] | bio-layer interferometry, POPC background subtracted [2] | Kd [3] | Kd [4] | Kd [5]
CCCCCCCC/C=C\CCCCCCCC(=O)OC[C@H](COP(=O)(O)OC[C@H](N)C(=O)O)OC(=O)CCCCCCC/C=C\CCCCCCCC [PS] | highest near-steady-state binding was observed with PS, PI4P and PI5P liposomes | followed by weaker binding to PI4P and PS liposomes |  |  | 
CCCCCCCC/C=C\CCCCCCCC(=O)OC[C@H](COP(=O)(O)O[C@H]1[C@H](O)[C@@H](O)[C@H](OP(=O)(O)O)[C@@H](O)[C@H]1O)OC(=O)CCCCCCC/C=C\CCCCCCCC [PI4P] |  | followed by weaker binding to PI4P and PS liposomes | 6050 nM | 2210 nM | 
CCCCCCCC/C=C\CCCCCCCC(=O)OC[C@H](COP(=O)(O)O[C@@H]1[C@H](O)[C@H](O)[C@@H](OP(=O)(O)O)[C@H](OP(=O)(O)O)[C@H]1O)OC(=O)CCCCCCC/C=C\CCCCCCCC [PI(4,5)P2] |  |  |  |  | 1230 nM
CCCCCCCC/C=C\CCCCCCCC(=O)OC[C@H](COP(=O)(O)O[C@H]1[C@H](O)[C@@H](OP(=O)(O)O)[C@H](O)[C@@H](O)[C@H]1O)OC(=O)CCCCCCC/C=C\CCCCCCCC [PI5P] | highest near-steady-state binding was observed with PS, PI4P and PI5P liposomes |  |  |  | 
